Data: paper PMC5903342 (Oxidative Medicine and Cellular Longevity, 2018)
Where two headings read alike, the source gives them in different places.

Key:
[1] = tested on: Salmonella enterica serovar typhimurium TA98 and TA100 strains; settings: sodium azide or 4-nitro-o-phenylenediamine, TA98 and TA100, absence of metabolic activation; cited from earlier work
[2] = tested on: CHO-K1 cells; design: method as in PMID 15988137; settings: statins from 10 μM to 100 μM; cited from earlier work
[3] = DPPH free radical scavenging assay; assay type: biochemical; settings: absorbance at 517 nm
Experimental: The free radical scavenging activity was measured by following microplate procedures as previously described. One hundred microliters of the sample dilutions with five concentration levels (varying from 0 to 2000 μM in DMSO) was added to two identical groups of wells in a 96-well microplate. The same volume of 0.1 mM DPPH-methanol solution was added to each well of one group (samples), and methanol ([…]) was added to the other group (blanks). The control was prepared by mixing the DPPH-methanol solution with the sample solvent or butylated hydroxytoluene (BHT). The solutions were mixed thoroughly, covered, and allowed to react in the dark at room temperature for 40 min. The absorbance was measured at 517 nm using a microplate reader (Quant, BioTek Instruments Inc.), and the scavenging activity was calculated from the absorbance values according to the following equation: […]. The antioxidant properties of the samples were expressed as half the maximal effective concentrations (EC50) obtained by interpolation from the linear regression analysis. BHT was used as the positive control.

[4] = tested on: HepG2 cells; experiment: Flow cytometry cell cycle analysis; assay type: cell-based, Human; settings: 24 h
Experimental: The cells (1 × 10^5) were washed in PBS solution and centrifuged at 400 ×g for 5 min, and after, the cells were suspended in DNA staining solution (0.3% Triton X-100 and 50 μg/mL propidium iodide (PI) in a 43 mM citrate buffer), as previously described. After 45 minutes of treatment with 50 μg/mL ribonuclease A (Sigma, EUA), the PI fluorescence was determined (10,000 events per sample) in a Gallios flow cytometer (Beckman Coulter, USA). Data were analyzed by the Summit v4.3 software. The experiments were done at least three times, and statistical analysis was performed by one-way ANOVA followed by a Tukey's post hoc test.

[5] = in vitro; assay type: cell-based; settings: human, HepG2, 24 h of exposure
Experimental: (§3) Human hepatocellular carcinoma cells (HepG2) obtained from the American Type Culture Collection (Manassas, VA) were cultured in a minimum Eagle's medium (MEM, Gibco®, USA) containing 10% fetal bovine serum (FBS) plus 100 μg/mL streptomycin and 100 μg/mL penicillin at 37°C in a 5% CO2 atmosphere. Logarithmic-phase cells were used in all the experiments [9].
Fresh HepG2 cells were seeded at a density of 1 × 10^5/well.

[6] = tested on: HepG2 cells
Experimental: as §3
The HepG2 cells were seeded at a density of 1 × 10^5/mL into 24-well plates (1 mL/well). […] DMSO 1% was used as the negative control. After exposure to the compounds, the cells were incubated for 24 h more and the cytogenetic studies were carried out in triplicate and N = 3 [14]. In order to determine the mitotic index and the number of cells with micronuclei, the medium was replaced by a cold methanol-glacial acetic acid (3 : 1) fixative for 30 min and the cells were then rinsed with distilled water for 2 min and air dried. […] To determine the mitotic index and the number of cells with micronuclei, 2000 cells per well (6000 cells per concentration) were analyzed using fluorescence microscopy (Reichert Univar) with an excitation wavelength of 350 nm. […] Statistical differences between the groups were analyzed by a one-way ANOVA (p < 0.01) and Tukey's post hoc test.

[7] = tested on: Salmonella enterica serovar typhimurium TA102; experiment: Antimutagenicity assay (Salmonella/microsome), strain TA102; assay type: cell-based; settings: atorvastatin 0 μM
Excerpt: (§1) Salmonella enterica serovar typhimurium (S. typhimurium) strains TA100, TA1535, TA104, and TA102 from the authors' laboratory stock were used as described by Maron and Ames in the antimutagenicity assay.
(§2) We carried out the coexposure protocol of the antimutagenicity assay to investigate the potential of the compound to protect against alkylation-mediated genetic mutation in S. typhimurium TA100, TA102, TA104, and TA1535 strains according to Ajith and Soja. The test proceeded both in the absence and presence of a metabolic activation system (4% S9 mix, Aroclor preinduced, from MOLTOX Inc., USA). DMSO 1% served as the negative control. […] The mixtures were incubated in a shaker at 37°C (preincubation) under light protection. After a total of 60 min of cotreatment, the mixtures were added to and mixed with 2 mL top agar containing 0.05 mmol/L L-histidine and D-biotin for the S. typhimurium strains. Each of these was then spread on a minimal glucose agar (1.5% agar, Vogel-Bonner medium E, containing 2% glucose) plate. After the top agar solidified, the plates were incubated at 37°C for 60–72 h. Each tester strain was assayed in triplicate and repeated at least twice, and the number of revertant colonies was counted for each tester strain and treatment group. The counts of revertant colonies were obtained to build a dose-response curve and calculate the percentage of reduction.

[8] = tested on: Salmonella enterica serovar typhimurium TA100; experiment: Antimutagenicity assay (Salmonella/microsome), strain TA100 (co-, pre- and posttreatment); assay type: cell-based; settings: atorvastatin 0 μM
[9] = tested on: Salmonella enterica serovar typhimurium TA104; experiment: Antimutagenicity assay (Salmonella/microsome), strain TA104; assay type: cell-based; settings: atorvastatin 0 μM
Excerpt: as §1, §2

[10] = tested on: Salmonella enterica serovar typhimurium TA1535; experiment: Antimutagenicity assay (Salmonella/microsome), strain TA1535; assay type: cell-based; settings: atorvastatin 0 μM
Excerpt: as §1, §2

[11] = TA100, cotreatment protocol, −S9, MMS (100 μM) only
[12] = TA100, posttreatment protocol, −S9, MMS (100 μM) only
[13] = TA100, pretreatment protocol, −S9, MMS (100 μM) only
[14] = TA100, cotreatment protocol, +S9, CPA (150 μM) only
[15] = TA100, posttreatment protocol, +S9, CPA (150 μM) only
[16] = TA100, pretreatment protocol, +S9, CPA (150 μM) only

SMILES: CC[C@H](C)C(=O)O[C@H]1C[C@@H](C)C=C2C=C[C@H](C)[C@H](CC[C@@H]3C[C@@H](O)CC(=O)O3)[C@H]21 [LOVA, lovastatin]
- Antimutagenic (chemopreventive) effect against direct mutagens [1]: able to exert chemopreventive effects

SMILES: CC[C@H](C)C(=O)O[C@H]1C[C@H](O)C=C2C=C[C@H](C)[C@H](CC[C@@H](O)C[C@@H](O)CC(=O)O)[C@H]21 [pravastatin]
- Micronucleus formation after exposure to bleomycin [2]: reduced micronucleus formation

SMILES: Cc1cc(C(C)(C)C)c(O)c(C(C)(C)C)c1 [BHT, butylated hydroxytoluene]
- EC50 [3]: 83 ± 2 µM

SMILES: COS(C)(=O)=O [MMS, methyl methanesulfonate]
- polyploid subpopulation ([4]; human, 20 μM): 15%
- sub-G1 percentage of cells ([4]; human, 20 μM): 19%
- CC50 ([5]; read-out: LC50 (the source's name)): 18.7 ± 6.67 µM
- Micronucleus formation, fold in comparison to the negative control ([6]; only MMS-exposed cells (10.0 μM MMS), 6 and 24 h): 6-7 fold
- His+ (revertant colonies) ([7]; TA102, −S9, MMS (100 μM) only): 578 ± 55
- MI (mutagenicity index) ([7]; TA102, −S9, MMS (100 μM) only): 2.31
- His+ (revertant colonies) [8, 11]: 212 ± 11
- MI (mutagenicity index) [8, 11]: 2.14
- His+ (revertant colonies) [8, 12]: 264 ± 31
- MI (mutagenicity index) [8, 12]: 2.09
- His+ (revertant colonies) [8, 13]: 230 ± 23
- MI (mutagenicity index) [8, 13]: 2.26
- His+ (revertant colonies) ([9]; TA104, −S9, MMS (100 μM) only): 897 ± 55
- MI (mutagenicity index) ([9]; TA104, −S9, MMS (100 μM) only): 2.24
- His+ (revertant colonies) ([10]; TA1535, −S9, MMS (100 μM) only): 71 ± 5
- MI (mutagenicity index) ([10]; TA1535, −S9, MMS (100 μM) only): 2.84

SMILES: CC(C)n1c(/C=C/C(O)CC(O)CC(=O)O)c(-c2ccc(F)cc2)c2ccccc21 (stereo not drawn) [fluvastatin]
- Micronucleus formation after exposure to bleomycin [2]: reduced micronucleus formation

SMILES: O=P1(N(CCCl)CCCl)NCCCO1 (stereo not drawn) [CPA, cyclophosphamide]
- sub-G1 percentage of cells ([4]; CPA only (no AVA)): 17%
- polyploid subpopulation ([4]; exposure just to CPA): 13%
- CC50 at 24 h ([5]; read-out: LC50): 98.7 ± 11.5 µM
- Micronucleus formation, fold in comparison to the negative control ([6]; 60.0 μM CPA only, 6 h and 24 h): 5-6 fold
- His+ (revertant colonies) ([7]; TA102, +S9, CPA (150 μM) only): 588 ± 85
- MI (mutagenicity index) ([7]; TA102, +S9, CPA (150 μM) only): 2.1
- His+ (revertant colonies) [8, 14]: 239 ± 30
- MI (mutagenicity index) [8, 14]: 2.13
- His+ (revertant colonies) [8, 15]: 278 ± 33
- MI (mutagenicity index) [8, 15]: 2.66
- His+ (revertant colonies) [8, 16]: 244 ± 8
- MI (mutagenicity index) [8, 16]: 2.44
- His+ (revertant colonies) ([9]; TA104, +S9, CPA (150 μM) only): 1092 ± 85
- MI (mutagenicity index) ([9]; TA104, +S9, CPA (150 μM) only): 2.40
- His+ (revertant colonies) ([10]; TA1535, +S9, CPA (150 μM) only): 56 ± 6
- MI (mutagenicity index) ([10]; TA1535, +S9, CPA (150 μM) only): 2.80
